In US11524960B2, “Heterobicyclic inhibitors of MAT2A and methods of use for treating cancer” (AGIOS PHARMACEUTICALS, INC., priority 2018, dated 2022):

Experiments:
MAT2A homodimer = biological target: T1, MAT2A homodimer (Homo sapiens, UniProt P31153); assay: Biochemical assay: inhibition of MAT2A (phosphate release, PiColorLock Gold); settings: MAT2A IC50 score; read-out: Enzyme Inhibition (Example 275)
T1 construct: inferred from Ni sepharose purification and imidazole elution; made in house; host or cells: Sf9 insect cells, recombinant baculovirus (Bac to Bac, pFASTBAC1)
Method in brief: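 Baculovirus/Sf9-expressed, Ni-purified MAT2A at 4 µg/mL was preincubated with compound for 60 min at 25 °C in 50 mM Tris pH 8.0, 50 mM KCl, 15 mM MgCl2, 0.3 mM EDTA, 0.005% BSA. Substrate mix (500 μM ATP, 400 μM L-methionine) was added and the reaction ran 60 min at 25 °C. Phosphate released stoichiometrically with SAM was measured colorimetrically against a phosphate standard curve.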

[1] = system: SAM in HCT116 human colon carcinoma cell line engineered to delete the MTAP gene (MTAP −/−); assay: Cellular assay of target engagement (SAM) by LC-MS/MS; type: cell-based; settings: Homo sapiens, HCT-116, 72 h, IC50 score, read-out: Cell 72 h SAM Inhibition (MTAP −/−; Example 276)
Method in brief: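 MTAP-deleted HCT116 cells were dosed 24 h after plating with a 10-point 3-fold compound series in DMSO, then incubated 72 h at 37 °C/5% CO2. Cells were extracted in cold 80% methanol with acetic acid and d3-SAM internal standard. SAM was quantified by LC-MS/MS MRM (m/z 399.2→250.1).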

HCT116 MTAP−/− = assay: Inhibition of cellular proliferation (Cell Titer Glo), HCT116 MTAP−/−; type: cell-based, human; settings: Homo sapiens, HCT-116, 96 h, 4 days, IC50 score, read-out: 4 Day Relative Growth Inhibition (MTAP −/−; Example 277)
Method in brief: (§1)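 Isogenic HCT116 lines, MTAP+/+ and MTAP−/−, treated 24 h after plating with 10-point 3-fold compound dilutions including DMSO only, then grown 4 days at 37 °C/5% CO2. Cell Titer Glo ATP luminescence, blank-subtracted and normalised to 0.2% DMSO control, gave percent change in proliferation versus log concentration.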

HCT116 MTAP+/+ = assay: Inhibition of cellular proliferation (Cell Titer Glo), HCT116 MTAP+/+; type: cell-based, human; settings: Homo sapiens, HCT-116, 96 h, 4 days, IC50 score, read-out: 4 Day Relative Growth Inhibition (MTAP +/+; Example 277)
Method in brief: as §1

T1 sequence (P31153 whole entry): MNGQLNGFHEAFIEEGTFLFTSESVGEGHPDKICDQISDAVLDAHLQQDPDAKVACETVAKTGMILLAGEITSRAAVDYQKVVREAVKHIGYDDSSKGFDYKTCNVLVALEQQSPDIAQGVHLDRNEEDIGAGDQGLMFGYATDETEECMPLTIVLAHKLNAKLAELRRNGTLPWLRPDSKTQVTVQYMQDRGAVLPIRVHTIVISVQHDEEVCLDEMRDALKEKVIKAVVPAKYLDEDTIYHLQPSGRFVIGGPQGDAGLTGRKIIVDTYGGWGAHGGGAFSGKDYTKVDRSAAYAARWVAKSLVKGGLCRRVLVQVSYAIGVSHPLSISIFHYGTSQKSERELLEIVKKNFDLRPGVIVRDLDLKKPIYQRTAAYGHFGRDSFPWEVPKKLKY

Row | IC50 (MAT2A homodimer) | IC50 [1] | IC50 (HCT116 MTAP−/−) | IC50 (HCT116 MTAP+/+) | SMILES
1 | < 0.1 µM | < 0.1 µM | < 0.1 µM | > 10 µM | CCOc1ccc2cn(-c3ccc4ncccc4c3)c(=O)c(-c3ccc(Cl)cc3)c2n1 [Example 243, 8-(4-chlorophenyl)-2-ethoxy-6-(quinolin-6-yl)-1,6-naphthyridin-7(6H)-one]
2 | < 0.1 µM | < 0.1 µM | < 0.1 µM | 0.1 to 10 µM | CCOc1ccc2cn(-c3ccc4nccnc4c3)c(=O)c(-c3ccc(Cl)cc3)c2n1 [Example 244, 8-(4-chlorophenyl)-2-ethoxy-6-(quinoxalin-6-yl)-1,6-naphthyridin-7(6H)-one]
3 | < 0.1 µM | < 0.1 µM | 0.1 to 10 µM | > 10 µM | CCOc1ccc2cn(-c3ccc4nnccc4c3)c(=O)c(-c3ccc(Cl)cc3)c2n1 [Example 245, 8-(4-chlorophenyl)-6-(cinnolin-6-yl)-2-ethoxy-1,6-naphthyridin-7(6H)-one]
4 | < 0.1 µM | 0.1 to 1 µM | 0.1 to 10 µM | 0.1 to 10 µM | CCOc1ccc2cn(-c3ccc4ncncc4c3)c(=O)c(-c3ccc(Cl)cc3)c2n1 [Example 246, 8-(4-chlorophenyl)-2-ethoxy-6-(quinazolin-6-yl)-1,6-naphthyridin-7(6H)-one]
5 | < 0.1 µM | < 0.1 µM | < 0.1 µM | 0.1 to 10 µM | CCOc1ccc2cn(-c3ccc4nn(C)cc4c3)c(=O)c(-c3ccc(Cl)cc3)c2n1 [Example 247, 8-(4-chlorophenyl)-2-ethoxy-6-(2-methyl-2H-indazol-5-yl)-1,6-naphthyridin-7(6H)-one]
6 | < 0.1 µM | < 0.1 µM | < 0.1 µM | 0.1 to 10 µM | CCOc1ccc2cn(-c3ccc4ncn(C)c4c3)c(=O)c(-c3ccc(Cl)cc3)c2n1 [Example 248, 8-(4-chlorophenyl)-2-ethoxy-6-(1-methyl-1H-benzo[d]imidazol-6-yl)-1,6-naphthyridin-7(6H)-one]
7 | < 0.1 µM | < 0.1 µM | 0.1 to 10 µM | 0.1 to 10 µM | CCOc1ccc2cn(-c3ccc(=O)n(CCS(C)(=O)=O)c3)c(=O)c(-c3ccc(OC(F)F)cc3)c2n1 [Example 249, 8-(4-(difluoromethoxy)phenyl)-2-ethoxy-6-(1-(2-(methylsulfonyl)ethyl)-6-oxo-1,6-dihydropyridin-3-yl)-1,6-naphthyridin-7(6H)-one]
8 | < 0.1 µM | < 0.1 µM | < 0.1 µM | 0.1 to 10 µM | CCOc1ccc2cn(-c3ccc(OC)cc3)c(=O)c(-c3ccc(OC(F)F)cc3)c2n1 [Example 250, 8-(4-(difluoromethoxy)phenyl)-2-ethoxy-6-(4-methoxyphenyl)-1,6-naphthyridin-7(6H)-one]
9 | < 0.1 µM | < 0.1 µM | < 0.1 µM | 0.1 to 10 µM | CCOc1ccc2cn(-c3ccc4nn(C)cc4c3)c(=O)c(-c3ccc(OC(F)F)cc3)c2n1 [Example 251, 8-(4-(difluoromethoxy)phenyl)-2-ethoxy-6-(2-methyl-2H-indazol-5-yl)-1,6-naphthyridin-7(6H)-one]
10 | < 0.1 µM | < 0.1 µM | 0.1 to 10 µM | 0.1 to 10 µM | CCOc1ccc2cn(-c3ccc4nnn(C)c4c3)c(=O)c(-c3ccc(OC(F)F)cc3)c2n1 [Example 252, 8-(4-(difluoromethoxy)phenyl)-2-ethoxy-6-(1-methyl-1H-benzo[d][1,2,3]triazol-6-yl)-1,6-naphthyridin-7(6H)-one]
11 | < 0.1 µM | < 0.1 µM | < 0.1 µM | 0.1 to 10 µM | CCOc1ccc2cn(-c3ccc4ncn(C)c4c3)c(=O)c(-c3ccc(OC(F)F)cc3)c2n1 [Example 253, 8-(4-(difluoromethoxy)phenyl)-2-ethoxy-6-(1-methyl-1H-benzo[d]imidazol-6-yl)-1,6-naphthyridin-7(6H)-one]
12 | < 0.1 µM | < 0.1 µM | < 0.1 µM | > 10 µM | Cn1cc2cc(-n3cc4ccc(OCC(F)(F)F)nc4c(-c4ccc(Cl)cc4)c3=O)ccc2n1 [Example 254, 8-(4-chlorophenyl)-6-(2-methyl-2H-indazol-5-yl)-2-(2,2,2-trifluoroethoxy)-1,6-naphthyridin-7(6H)-one]
13 | < 0.1 µM | < 0.1 µM | < 0.1 µM | > 10 µM | Cn1cnc2ccc(-n3cc4ccc(OCC(F)(F)F)nc4c(-c4ccc(Cl)cc4)c3=O)cc21 [Example 255, 8-(4-chlorophenyl)-6-(1-methyl-1H-benzo[d]imidazol-6-yl)-2-(2,2,2-trifluoroethoxy)-1,6-naphthyridin-7(6H)-one]
14 | < 0.1 µM | < 0.1 µM | 0.1 to 10 µM | 0.1 to 10 µM | Cn1cc2cc(-n3cc4ccc(OCC(F)(F)F)nc4c(-c4ccc(OC(F)F)cc4)c3=O)ccc2n1 [Example 256, 8-(4-(difluoromethoxy)phenyl)-6-(2-methyl-2H-indazol-5-yl)-2-(2,2,2-trifluoroethoxy)-1,6-naphthyridin-7(6H)-one]
15 | < 0.1 µM | < 0.1 µM | < 0.1 µM | 0.1 to 10 µM | Cn1cnc2ccc(-n3cc4ccc(OCC(F)(F)F)nc4c(-c4ccc(OC(F)F)cc4)c3=O)cc21 [Example 257, 8-(4-(difluoromethoxy)phenyl)-6-(1-methyl-1H-benzo[d]imidazol-6-yl)-2-(2,2,2-trifluoroethoxy)-1,6-naphthyridin-7(6H)-one]
16 | < 0.1 µM | < 0.1 µM | 0.1 to 10 µM | 0.1 to 10 µM | COc1ccc(-n2cc3ccc(OCC(F)(F)F)nc3c(-c3ccc(OC(F)F)cc3)c2=O)cc1 [Example 258, 8-(4-(difluoromethoxy)phenyl)-6-(4-methoxyphenyl)-2-(2,2,2-trifluoroethoxy)-1,6-naphthyridin-7(6H)-one]
17 | < 0.1 µM | < 0.1 µM | < 0.1 µM | > 10 µM | CCSc1ccc2cn(-c3ccc4nn(C)cc4c3)c(=O)c(-c3ccc(Cl)cc3)c2n1 [Example 259, 8-(4-chlorophenyl)-2-(ethylthio)-6-(2-methyl-2H-indazol-5-yl)-1,6-naphthyridin-7(6H)-one]
18 | < 0.1 µM | < 0.1 µM | < 0.1 µM | > 10 µM | CCCc1ccc2cn(-c3ccc4ncn(C)c4c3)c(=O)c(-c3ccc(OC(F)F)cc3)c2n1 [Example 260, 8-(4-(difluoromethoxy)phenyl)-6-(1-methyl-1H-benzo[d]imidazol-6-yl)-2-propyl-1,6-naphthyridin-7(6H)-one]
19 | < 0.1 µM | < 0.1 µM | 0.1 to 10 µM | > 10 µM | Cn1cc2cc(-n3cc4cnc(OCC(F)(F)F)nc4c(-c4ccc(Cl)cc4)c3=O)ccc2n1 [Example 262, 8-(4-chlorophenyl)-6-(2-methyl-2H-indazol-5-yl)-2-(2,2,2-trifluoroethoxy)pyrido[4,3-d]pyrimidin-7(6H)-one]
20 | < 0.1 µM | < 0.1 µM | 0.1 to 10 µM | 0.1 to 10 µM | O=c1c(-c2ccc(OC(F)F)cc2)c2nc(OCC(F)(F)F)ncc2cn1-c1ccc2ncccc2c1 [Example 264, 8-(4-(difluoromethoxy)phenyl)-6-(quinolin-6-yl)-2-(2,2,2-trifluoroethoxy)pyrido[4,3-d]pyrimidin-7(6H)-one]
